From US8530235B2, “Medium that supports culture of an oocyte and modulation of granulosa cell apoptosis” (Adelaide Research & Innovation Pty Ltd., priority 2005, dated 2013) come the findings set out here.

The test system of assay [1] is cumulus expansion of oocytectomised (OOX) complexes. The assay is described as follows: FSH-induced cumulus expansion score of OOX complexes. It is filed as cell-based, mice. As to the method:
Members of the TGF-β superfamily are prime candidates for the mouse cumulus expansion-enabling factor (CEEF). This study was conducted to examine TGF-β superfamily processes regulating cumulus expansion. COCs were collected from eGG-primed mice and the oocyte microsurgically removed to generate oocytectomised (OOX) complexes. […] The type-I receptors for GDF9 and […] are ALK5 and ALK4, respectively. We tested the ability of an ALK4/5/7 kinase inhibitor to neutralize cumulus expansion.

In the next assay the test system is cumulus-oocyte complexes. The assay is described as follows: Study IV: oocyte developmental competence after IVM, IVF and embryo culture. It is filed as cell-based, Bovine. The protocol: Unless otherwise specified, all chemicals and reagents were purchased from Sigma (St Louis, Mo.). Bovine ovaries were collected from local abattoirs and transported to the laboratory in warm saline (30-35° C.). COCs were aspirated from antral follicles (3 to 5 mm diameter) using an 18-gauge needle and a 10-ml syringe containing ˜2 ml aspiration medium (Hepes-buffered. Tissue Cultured Medium-199; TCM-199. ICN Biochemicals, Irvine, Calif., USA) supplemented with 50 μg/ml kanamycin, 0.5 mM sodium pyruvate, 50 μg/ml heparin and 4 mg/ml fatty acid-free bovine serum albumin (FAF-BSA; ICPbio Ltd, Aukland, NZ). Intact COCs with compact cumulus vestments>˜5 cell layers and evenly pigmented cytoplasm were selected under a dissecting microscope and washed twice in Hepes-buffered TCM-199 and once in Hepes-buffered TCM-199 supplemented with 10% fetal calf serim (FCS) (Invitrogen, Carlsbad, Calif.). The basic medium for oocyte maturation was Bovine VitroMat (Cook Australia, Eight Mile Plains, Qld, Australia), a medium based on the ionic composition of bovine follicular fluid. […] Complexes were cultured in pre-equilibrated 300 ? l drops overlaid with mineral oil and incubated at 39° C. with 5% CO2 in humidified air for 24 hour. […]
Recombinant mouse GDF9 and recombinant ovine BMP15 were produced and partially purified in-house as previously described using transfected 293 human embryonic kidney cell lines (293H) originally donated by O. Ritvos (University of Helsinki). Control conditioned medium (hereafter designated ‘293H’) was produced from untransfected 293H cells and subjected to the same chromatography procedures as GDF9 and BMP15 conditioned media.
Consequently, SB-431542 potently antagonizes the ALK 4/5 ligands; TGF-β1, the activins and GDF9, without affecting BMP signalling (Inman et al., 2002; Gilchrist et al., 2006). […] Follistatin-288 was generously donated by S. Shimasaki (University of California San Diego, USA) and we have previously shown that this binding protein antagonizes the bioactivities of native OSFs and recombinant BMP15 in CCs.
In vitro production of embryos was undertaken using defined, serum-free media (Bovine Vitro series of media, Cook Australia). Frozen semen from a single bull of proven fertility was used in all experiments. Briefly, thawed semen was layered over a discontinuous (45%: 90%) Percoll gradient (Amersham Bioscience) and centrifuged (RT) for 20-25 mins at 700 g. The supernatant was removed and the sperm pellet was washed with 500 μl Bovine VitroWash (Cook Australia) and centrifuged for a further 5 minutes at 200 g. Spermatozoa were resuspended with IVF medium (Bovine VitroFert, Cook Australia), then added to the fertilization media drops (Bovine VitroFert, supplemented with 0.01 mM heparin, 0.2 mM penicillamine and 0.1 mM hypotaurine) at a final concentration of 1×106 spermatozoa/ml. COCs were inseminated at a density of 10 μl of IVF medium per COC for 24 h, at 39° C. in 6% CO2 in humidified air.
CCs were removed by gentle pipetting 23-24 h post insemination and five presumptive zygotes were transferred into 20 μl drops of pre-equilibrated Cook Bovine VitroCleave medium (Cook Australia) and cultured under mineral oil at 38.5° C. in 7% O2, 6% CO2, balance N2, for five days (day 1 to day 5).
On Day 5, embryos were transferred in groups of 5-6 to 20 μl drops of pre-equilibrated Bovine VitroBlast (Cook Australia) at 38.5° C. overlaid with mineral oil and cultured to Day 8. Embryos were assessed for quality at Day 8 according to the definitions presented in the Manual of the International Embryo Transfer Society (Stringfellow, 1998) and were performed independently and blinded by an experienced bovine embryologist.
Cell counts were performed using a modified version of the technique described by (Fouladi-Nashta et al., 2005). […]

The next assay concerns cumulus cells. The assay is described as follows: Cumulus cell apoptosis in oocytectomized complexes (OOX) and COC, TUNEL with confocal microscopy. It is filed as cell-based, Bovine. The protocol:
Bovine ovaries were collected from local abattoir and transported to the laboratory in warm saline (30-35° C.). Cumulus-oocyte complexes (COC) were aspirated from antral follicles (2- to 8-mm diameter) using an 18-gauge needle and a 10-ml syringe containing ˜2 ml aspiration media (Hepes-buffered Tissue Cultured Medium-199: TCM-199, ICN Biochemicals, Irvine, Calif., USA) supplemented with 50 μg/ml kanamycin (Sigma-Aldrish, St. louis, Mo.), 4 mg/ml fatty acid-free bovine serum albumin (FAF-BSA) (ICPbio ltd, Auckland, NZ). Intact COC with compact cumulus vestment greater than five cell layers and evenly pigmented cytoplasm were selected under a dissecting microscope and washed twice in Hepes-buffered TCM-199 and once in corresponding culturing media.
The cytoplasm of each oocyte was microsurgically removed from the COC (oocytectomy) using a micromanipulator as described in Buccione et al (Buccione et al. (1990) Dev Biol 138, 16-25.). The resulting oocytectomized complex (OOX) consists of a hollow zona pellucida surrounded by several layers of intact CC.
Denuded oocytes (DO) were generated by removing CC from COC by vortexing for approximately 4 minutes in 2 ml H-TCM-199/BSA. Any remaining CC were removed by repeated passage of the oocytes through a fine-bore fire-polished glass pipette in H-TCM-199/BSA.
CC apoptoic DNA was detected using TUNEl (Roche Diagnostic, Penzberg, Germany) according to the manufacturer's instructions. Briefly, following culture COC and OOX complexes were washed twice in PBS (pH 7.4) containing 1% BSA, fixed in 4% paraformaldehyde in PBS (pH 7.4) overnight at 4° C. and washed twice with PBS/BSA before placing on Cell-Tak-coated coverslips (Beckton Dickinson Biosciences, Franklin lakes, N.J.). Complexes were then permeabilized in 0.11/u Triton X-100 in 0.1% sodium citrate for 1 hour at room temperature and washed 3 times in PBS/BSA. The complexes were then incubated in fluorescein-conjugated dUTP and terminal deoxynucleotide transferase (TUNEl reagents, Roche) for 1 hour at 37° C. in the dark. Positive controls were incubated in DNAse 1 (0.005 U/µl), which cleaves all DNA, for 20 minutes at room temperature and washed twice in PBS/BSA before TUNEl. Negative controls were incubated in fluorescein-dUTP in the absence of TdT. After TUNEl, complexes were washed twice in PBS/BSA and counterstained with propidium iodide 0.5 μg/ml (PI) plus RNase A (0.1 mg/ml) for 1 hour at room temperature in the dark to label all nuclei. Complexes were then washed twice in PBS/BSA and mounted with slight coverslip compression in VectaShield anti-bleaching solution (Vector labs, Burlingame, Calif.), and stored in the dark at 4° C. for confocal analysis.
Apoptosis in COC and OOX was visualised and quantified using confocal microscopy. Dual fluorescence emission from CC was detected using a Nikon C1 Confocal Scanning Head and a Nikon TE2000E microscope (Nikon, Tokyo, Japan). Simultaneous emission capture of the apoptotic signal (fluorescein, lacer excitation 488 nm, emission 510-530 nm) and the nuclear signal (propidium iodide, excitation lacer 532, emission 590-640 nm) was performed.
In order to generate an accurate representation of the overall apoptotic incidence for all complexes, the depth of each complex was measured through a Z series to divide the construct into three percentiles (optical Z plane sections) at 25%, 50% and 75%. These optical section images were acquired and saved as independent colour channels (green, apoptotic cumulus fluorescence and red, nuclear cumulus fluorescence). The captured images were then processed in Scanalytics IPlab software Version 3.6. (Scanalytics, Fairfax, Va.). Quantification of CC number (for each colour channel) was independently measured using a macro script utilizing an auto segmentation filter for each optical section percentile (3 optical “z”-plane sections for each complex).

Assay [2] concerns Smad 3-responsive CAGA-luciferase reporter. Briefly: Smad 3-responsive CAGA-luciferase reporter in mural granulosa cells from large antral follicles. It is filed as cell-based, marmoset monkey, Callithrix jacchus. To be noted: 48 h; 0.5 ng/ml TGFβ1, 88-265 ng/ml GDF9, 50 ng/ml BMP7 or 60 mouse oocytes. The protocol:
(§1) FIGS. 18A and 18B show the activation of the TGF-β signalling pathway by GDF9 and oocytes. MGC from large follicles were transiently transfected with either a Smad 3-responsive CAGA-luciferase reporter construct (A) or a Smad 1-responsive BRE-luciferase reporter construct (B). Cells were subsequently left untreated, treated with 0.5 ng/ml TGFβ1, 88-265 ng/ml GDF9, 50 ng/ml BMP7 or co-cultured with 60 mouse oocytes. Cells were cultured for 48 h after which time luciferase activity was measured from cell extracts. Bars represent means+/− SEM from 3 replicate experiments expressed as a fold change relative to control.
(§2) Luciferase reporter constructs responsive to specific phosphorylated Smads were used to detect the activation of mural GC Smad proteins by recombinant GDF9 Mural GCs were collected and processed as described above, except cells were given a final wash in DMEM(MP Biomedicals, Seven Hills, Australia)+2% FCS (Trace Biosciences, Castle Hill, Australia). Following the final wash, cells were transferred to individual wells of a 96-well plate (Falcon) and cultured at 1.6×10^5 cells/ml. After 4 hours of culture, cells were transiently transfected with 50 ng of luciferase reporter construct DNA using Fugene 6 (Roche Diagnostics, Castle Hill, Australia). 18 hours after transfection, medium was aspirated from cells and replaced with DMEM supplemented with 0.1% FCS. Various ligands were added to cells at this point (see below) and the culture period extended for a further 48 hours. Experiments were terminated by removing media from wells and freezing plates at −20° C. […]
(§3) Seven adult female marmosets were primed with […] for 6 days, whole ovaries were removed on day 7, follicles manually excised, and GC were then collected from 3 size classes: periantral (PA; 0.42-0.66 mm), small antral (SA; 0.66-1.5 mm) and large antral (LA; >1.5 mm). […] In order to determine the effects of GDF9 on marmoset GC proliferation, we employed a GC bioassay whereby after 24 h ^3H-thymidine incorporation is assessed as an indicator of DNA synthesis and cellular proliferation. […]
In general terms: In a reporter assay the amount or activity of a reporter protein is the signal.

Assay [3] has as its system Smad 1-responsive BRE-luciferase reporter. Briefly: Smad 1-responsive BRE-luciferase reporter in mural granulosa cells from large antral follicles. In kind it is cell-based, marmoset monkey, Callithrix jacchus. To be noted: 48 h; 0.5 ng/ml TGFβ1, 88-265 ng/ml GDF9, 50 ng/ml BMP7 or 60 mouse oocytes. The protocol: as §1, §2, §3
The next assay concerns granulosa cell. Briefly: GDF-9 and oocyte-induced granulosa cell DNA synthesis (Example 21). In kind it is cell-based. The source says:
FIGS. 14A and 14B show the effect of an AlK4/5/7 inhibitor on either GDF-9, TGF-β1, or oocyte induced DNA synthesis (Panel A), and the effect of various concentrations of the inhibitor on GDF-9 and oocyte induced DNA synthesis (Panel B).

In the next assay the test system is Smad2/3. Briefly: CAGA-luciferase activity, activation of Smad2/3 (Example 21). In kind it is cell-based. An excerpt: FIGS. 15A and 15B show the effect of various concentrations of the AlK4/5/7 inhibitor on TGF-β1 stimulated CAGA luciferase activity.

follistatin [reference compound]: the “cumulus expansion score with follistatin” value is 2.7±0.2 in assay [1] (OOX complexes co-cultured with oocytes, no significant effect (p>0.05)) and 0 in assay [1] (response of OOX complexes to activin). Besides, the “blastocyst development of control COCs treated with antagonist” value in the assay on cumulus-oocyte complexes (4 μM SB-431542 or 10 μg/ml follistatin-288, compared to untreated COCs) is on record as “significantly (P<0.05) decreased”. Also, in the assay with cumulus-oocyte complexes (10 μg/ml follistatin-288 during IVM, regardless of BMP15 treatment, control 76.2±1.3, p=0.007, in %), the “cleavage rate of oocytes” value came to 71.8±1.3. In the assay with cumulus-oocyte complexes (SB-431542 against GDF9, follistatin against BMP15), the “increase of blastocyst yields by GDF9 or BMP15 on addition of the respective antagonist” value was “ablated”. In addition, in the assay on cumulus cells (OOX + 10% v/v BMP-15, follistatin 0-100 μg/ml), the “apoptosis of BMP-15-treated OOXs with antagonist” value is on record as “dose-dependent increase in apoptosis”. Besides, in the assay with cumulus cells (OOX + 25 DO, 50 μg/ml follistatin or 20 μg/ml BMP-6 NAb alone), the “antagonism of the anti-apoptotic effects of oocytes on cumulus cells” value was around 50%.

“TGF-β1: Transforming growth factor beta 1 [reference compound]”: the “CAGA-luciferase activity above control levels” value in assay [2] turned out to be 19 fold. In addition, the “BRE-luciferase activity compared to control levels” value in assay [3] is “not activated”.

Consider `NC(=O)c1ccc(-c2nc(-c3ccccn3)c(-c3ccc4c(c3)OCO4)[nH]2)cc1` [ALK4/5/7 kinase inhibitor], for which the “GDF-9 and oocyte-induced granulosa cell DNA synthesis with inhibitor” value in the assay with granulosa cell was “completely abrogated”. In assay [1] (OOX complexes), the “GDF-9 and oocyte-induced cumulus expansion with inhibitor” value is recorded as “completely neutralised”. In the assay with Smad2/3, the “TGF-β1, GDF9 and oocyte-stimulated activation of Smad2/3 molecules (CAGA-luciferase activity) with inhibitor” value is given as “completely abrogated”.

B1: BMP-7: Recombinant human BMP-7 obtained from R&D systems (protein, UniProt P18075 293-431, looked up)
Bone morphogenetic protein 7: STGSKQRSQNRSKTPKNQEALRMANVAENSSSDQRQACKKHELYVSFRDLGWQDWIIAPEGYAAYYCEGECAFPLNSYMNATNHAIVQTLVHFINPETVPKPCCAPTQLNAISVLYFDDSSNVILKKYRNMVVRACGCH
As to B1, the “CAGA-luciferase activity above control levels” value in assay [2] was “not stimulated”. Besides, the “BRE-luciferase activity compared to control levels” value in assay [3] was 31 fold. Moreover, the “effect on cumulus cell apoptosis” value with cumulus cells (OOX treated with 100 ng/ml BMP-7 and/or 10% BMP-15) is reported as “significantly reduced”.
